Legend:
[1] = tested on: Human immunodeficiency virus type 1 integrase (Human immunodeficiency virus 1), Q7ZJM1 [N155H]; assay: Inhibition of HIV recombinant integrase N155H mutant assessed as specific strand transfer activity using U5 TTCA LTR by scintillation proximity assay relative to wild type LTR; set-up: scale not given: the % may be the effect or the level left; conditions: tested as the 3H-labelled form
[2] = tested on: Human immunodeficiency virus; assay: Inhibition of U5 GddA LTR HIV wild type integrase assessed as strand transfer activity using by scintillation proximity assay relative to wild type LTR; set-up: scale not given: the % may be the effect or the level left; conditions: tested as the 3H-labelled form

## Cn1c(N2CCCCS2(=O)=O)nc(C(=O)NCc2ccc(F)cc2)c(O)c1=O [BMS-707035]
[1]
  Activity: > 20%
[2]
  Activity: 1%

From ChEMBL document CHEMBL1156506, “Changes to the HIV long terminal repeat and to HIV integrase differentially impact HIV integrase assembly, activity, and the binding of strand transfer inhibitors” (J Biol Chem, 2007)
